Data as given in ChEMBL document CHEMBL4257529, “Antifungal amphiphilic kanamycins: new life for an old drug” (Medchemcomm, 2018).
Converted amounts (≈) assume the structure as drawn.

Tests used:
Format in all cases: functional
Candida albicans [1] = experiment: Antifungal activity against Candida albicans B-311
Cryptococcus neoformans [2] = experiment: Antifungal activity against Cryptococcus neoformans 90-26
Candida albicans [3] = experiment: Antifungal activity against resistant Candida albicans ATCC 64124
Candida parapsilosis [4] = experiment: Antifungal activity against sensitive Candida parapsilosis; conditions: Lodderomyces parapsilosis
Candida parapsilosis [5] = experiment: Antifungal activity against resistant Candida parapsilosis; conditions: Lodderomyces parapsilosis
Cryptococcus neoformans [6] = experiment: Antifungal activity against Cryptococcus neoformans H99; conditions: var grubii H99
Cryptococcus neoformans [7] = experiment: Antifungal activity against Cryptococcus neoformans 94-2586
Candida albicans [8] = experiment: Antifungal activity against Candida albicans 94-2181
Candida tropicalis = experiment: Antifungal activity against Candida tropicalis 95-41
Kluyveromyces marxianus = experiment: Antifungal activity against Candida pseudotropicalis YOGI
Candida albicans [9] = experiment: Antifungal activity against Candida albicans ATCC 10231
Candida albicans [10] = experiment: Antifungal activity against sensitive Candida albicans MYA-2876
Aspergillus flavus = experiment: Antifungal activity against Aspergillus flavus
Clavispora lusitaniae = experiment: Antifungal activity against Candida lusitaniae 95-767
Diutina rugosa = experiment: Antifungal activity against Candida rugosa 95-967
Aspergillus niger = experiment: Antifungal activity against Aspergillus niger
Fusarium oxysporum = experiment: Antifungal activity against Fusarium oxysporum
Escherichia coli = experiment: Antibacterial activity against Escherichia coli TG1
Staphylococcus aureus = experiment: Antibacterial activity against Staphylococcus aureus ATCC 25923
Micrococcus luteus = experiment: Antibacterial activity against Micrococcus luteus ATCC 10240
Fusarium graminearum [11] = experiment: Antifungal activity against Fusarium graminearum B-4-5A
Fusarium graminearum [12] = experiment: Antifungal activity against Fusarium graminearum infected in wheat plant assessed as fusarium head blight index at 1.02 L/ha (reference value: 53%)
Fusarium graminearum [13] = experiment: Antifungal activity against Fusarium graminearum infected in wheat plant assessed as fusarium head blight incidence at 0.512 L/ha (reference value: 70%)
Fusarium graminearum [14] = experiment: Antifungal activity against Fusarium graminearum infected in wheat plant assessed as fusarium head blight incidence at 1.02 L/ha (reference value: 70%)
Fusarium graminearum [15] = experiment: Antifungal activity against Fusarium graminearum infected in wheat plant assessed as fusarium head blight severity at 1.02 L/ha (reference value: 75%)
Fusarium graminearum [16] = experiment: Antifungal activity against Fusarium graminearum infected in wheat plant assessed as fusarium head blight severity at 0.512 L/ha (reference value: 75%)
Fusarium graminearum [17] = experiment: Antifungal activity against Fusarium graminearum infected in wheat plant assessed as fusarium head blight index at 0.512 L/ha (reference value: 53%)
Fusarium graminearum [18] = experiment: Antifungal activity against Fusarium graminearum infected in wheat plant assessed as contamination of wheat heads and kernels with deoxynivalenol at 5.5 ml/L (reference value: 1.2 ppm)
Fusarium graminearum [19] = experiment: Antifungal activity against Fusarium graminearum infected in wheat plant assessed as contamination of wheat heads and kernels with deoxynivalenol at 2.8 ml/L (reference value: 1.2 ppm)
Fusarium graminearum [20] = experiment: Antifungal activity against Fusarium graminearum infected in wheat plant assessed as contamination of wheat heads and kernels with deoxynivalenol at 4 ml/L (reference value: 1.2 ppm)
Fusarium graminearum [21] = experiment: Antifungal activity against Fusarium graminearum infected in wheat plant assessed as contamination of wheat heads and kernels with deoxynivalenol at 8 ml/L (reference value: 1.2 ppm)

Row | SMILES | MIC (Candida albicans [1]) [µg/mL] | MIC (Cryptococcus neoformans [2]) [µg/mL] | MIC (Candida albicans [3]) [µg/mL] | MIC (Candida parapsilosis [4]) [µg/mL] | MIC (Cryptococcus neoformans [6]) [µg/mL] | MIC (Cryptococcus neoformans [7]) [µg/mL] | MIC (Candida albicans [8]) [µg/mL] | MIC (Candida tropicalis) [µg/mL] | MIC (Kluyveromyces marxianus) [µg/mL] | MIC (Candida albicans [9]) [µg/mL] | MIC (Candida albicans [10]) [µg/mL] | MIC (Aspergillus flavus) [µg/mL] | MIC (Clavispora lusitaniae) [µg/mL] | MIC (Diutina rugosa) [µg/mL] | other results
1 | CCC(C)n1ncn(-c2ccc(N3CCN(c4ccc(OCC5COC(Cn6cncn6)(c6ccc(Cl)cc6Cl)O5)cc4)CC3)cc2)c1=O (stereo not given) [ITRACONAZOLE] | 16 to 32 (≈ 22.7 to 45.3 µM) | 0.37 (≈ 0.524 µM) | > 64 | 0.015 (≈ 0.0213 µM) | 1.56 (≈ 2.21 µM) | 0.06 (≈ 0.085 µM) | 8 to 16 (≈ 11.3 to 22.7 µM) | > 25 | 0.125 to 0.8 (≈ 0.177 to 1.13 µM) | 0.75 (≈ 1.06 µM) | > 2 | 0.125 (≈ 0.177 µM) | 0.2 (≈ 0.283 µM) | 0.12 (≈ 0.17 µM) | MIC (Candida parapsilosis [5]): 0.5 µg/mL (≈ 0.709 µM)
2 | NC[C@H]1O[C@H](O[C@H]2[C@H](O)[C@@H](O[C@H]3O[C@H](CO)[C@@H](O)[C@H](N)[C@H]3O)[C@H](N)C[C@@H]2N)[C@H](O)[C@@H](O)[C@@H]1O [KANAMYCIN] | > 250 | > 250 | > 500 | > 250 | > 125 | > 125 | > 250 | > 250 | > 250 | > 250 | > 250 | > 250 | > 250 | > 250 | MIC (Aspergillus niger): > 250 µg/mL; MIC (Fusarium oxysporum): > 250 µg/mL; MIC (Escherichia coli): 1.95 µg/mL (≈ 4.02 µM); MIC (Staphylococcus aureus): < 0.98 µg/mL; MIC (Micrococcus luteus): 1.95 µg/mL (≈ 4.02 µM); MIC (Fusarium graminearum [11]): > 125 µg/mL
3 | CC1(C)CCC(Cc2ccc(Cl)cc2)C1(O)Cn1cncn1 (stereo not given) [METCONAZOLE] |  |  |  |  |  |  |  |  |  |  |  |  |  |  | Activity_index (Fusarium graminearum [12]): 7%; Activity (Fusarium graminearum [13]): 13%; Activity (Fusarium graminearum [14]): 12%; Activity (Fusarium graminearum [15]): 58%; Activity (Fusarium graminearum [16]): 69%; Activity_index (Fusarium graminearum [17]): 9%
4 | OC(Cc1ccccc1Cl)(Cn1nc[nH]c1=S)C1(Cl)CC1 (stereo not given) [PROTHIOCONAZOLE] |  |  |  |  |  |  |  |  |  |  |  |  |  |  | Activity (Fusarium graminearum [18]): 0.7 ppm; Activity (Fusarium graminearum [19]): 1.1 ppm
5 | COC(=O)N(OC)c1ccccc1COc1ccn(-c2ccc(Cl)cc2)n1 [PYRACLOSTROBIN] |  |  |  |  |  |  |  |  |  |  |  |  |  |  | Activity (Fusarium graminearum [20]): 1.3 ppm; Activity (Fusarium graminearum [21]): 1.2 ppm
